Data on 27 compounds can be found in patent US20030199692A1, “Propanoic acid derivatives that inhibit the binding of integrins to their receptors” (priority 1999, published 2003).

T1 sequence (P13612 34-1032): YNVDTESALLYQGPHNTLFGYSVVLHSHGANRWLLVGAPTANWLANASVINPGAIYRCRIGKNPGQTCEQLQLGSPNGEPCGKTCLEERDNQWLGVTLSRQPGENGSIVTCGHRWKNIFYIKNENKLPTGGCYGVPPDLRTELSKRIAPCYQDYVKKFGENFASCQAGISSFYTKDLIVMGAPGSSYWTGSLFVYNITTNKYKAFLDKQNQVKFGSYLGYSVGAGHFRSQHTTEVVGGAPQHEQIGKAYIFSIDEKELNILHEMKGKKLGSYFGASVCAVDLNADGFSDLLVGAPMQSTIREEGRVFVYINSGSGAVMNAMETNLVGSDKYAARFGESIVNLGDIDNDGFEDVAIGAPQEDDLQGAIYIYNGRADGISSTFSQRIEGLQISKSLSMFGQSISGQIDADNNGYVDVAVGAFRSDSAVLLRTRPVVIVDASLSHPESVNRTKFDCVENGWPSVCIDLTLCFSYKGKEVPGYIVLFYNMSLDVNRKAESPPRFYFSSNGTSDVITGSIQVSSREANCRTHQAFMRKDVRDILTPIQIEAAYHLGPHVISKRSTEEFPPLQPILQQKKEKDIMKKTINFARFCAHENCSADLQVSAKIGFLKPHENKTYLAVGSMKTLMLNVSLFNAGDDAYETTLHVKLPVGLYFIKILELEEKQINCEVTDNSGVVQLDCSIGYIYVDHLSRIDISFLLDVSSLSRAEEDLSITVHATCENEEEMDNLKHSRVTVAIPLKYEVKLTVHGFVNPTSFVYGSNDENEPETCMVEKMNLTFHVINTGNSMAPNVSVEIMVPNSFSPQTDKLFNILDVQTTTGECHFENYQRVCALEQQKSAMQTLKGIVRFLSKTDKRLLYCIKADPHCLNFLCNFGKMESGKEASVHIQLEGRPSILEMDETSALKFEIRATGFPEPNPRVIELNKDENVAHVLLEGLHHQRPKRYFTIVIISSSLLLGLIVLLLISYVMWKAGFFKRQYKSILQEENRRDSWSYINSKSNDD
T1 sequence (P05556 21-798): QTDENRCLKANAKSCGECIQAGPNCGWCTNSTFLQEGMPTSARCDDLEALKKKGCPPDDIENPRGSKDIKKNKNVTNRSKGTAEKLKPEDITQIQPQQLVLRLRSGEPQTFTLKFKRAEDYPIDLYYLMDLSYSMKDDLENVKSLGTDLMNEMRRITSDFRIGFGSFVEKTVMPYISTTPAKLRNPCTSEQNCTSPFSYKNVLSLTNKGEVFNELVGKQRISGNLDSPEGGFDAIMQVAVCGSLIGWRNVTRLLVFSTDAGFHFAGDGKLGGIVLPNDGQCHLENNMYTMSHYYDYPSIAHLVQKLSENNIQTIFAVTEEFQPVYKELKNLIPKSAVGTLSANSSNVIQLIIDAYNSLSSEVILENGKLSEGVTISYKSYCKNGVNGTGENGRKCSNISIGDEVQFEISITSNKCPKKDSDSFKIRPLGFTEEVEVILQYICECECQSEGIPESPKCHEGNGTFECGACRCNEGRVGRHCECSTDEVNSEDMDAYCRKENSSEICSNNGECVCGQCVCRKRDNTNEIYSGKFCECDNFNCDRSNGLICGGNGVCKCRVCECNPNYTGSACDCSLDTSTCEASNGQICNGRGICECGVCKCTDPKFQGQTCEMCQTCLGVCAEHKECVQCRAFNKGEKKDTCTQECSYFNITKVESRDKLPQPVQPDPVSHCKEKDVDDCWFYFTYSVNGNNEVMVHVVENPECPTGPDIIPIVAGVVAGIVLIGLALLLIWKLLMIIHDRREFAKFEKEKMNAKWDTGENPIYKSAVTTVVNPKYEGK

One data set has as its target T1, α4β1 integrin (Homo sapiens, UniProt P05556+P13612).
T1 construct: endogenous in cells; host or cells: Ramos cells
Description: Inhibition of adhesion of calcein AM-labeled Ramos cells to CS1 (fibronectin) peptide-conjugated ovalbumin. In kind it is cell-based. As to conditions: Table 1; Ramos cell adhesion to CS1-conjugated ovalbumin, 30 minutes at 37° C. Put shortly: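 Calcein AM-labeled Ramos cells (2.5×10^5/well) added with or without compound to plates coated with CS1 peptide-ovalbumin conjugate in TBS containing 1 mM each MgCl2, CaCl2, MnCl2; 30 min at 37° C. Adherent cells lysed and quantified fluorometrically after washes; IC50 as dose for 50% inhibition, or percent inhibition at 100 μM.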
On to `CCCC[C@@H](C(=O)N[C@@H](CC(=O)O)c1ccc2c(c1)OCO2)n1cc(C)cc(Cc2ccccc2)c1=O` [Compound 10], for which the IC50 is 0.003 µM.

Still in this data set, the particulars now being: Table 3; Ramos cell adhesion to CS1-conjugated ovalbumin, 30 minutes at 37° C.
With `CCCCC(C(=O)N[C@@H](CC(=O)O)c1ccc2c(c1)OCO2)N1C(=O)N(Cc2ccccc2)C(=O)C1(C)C` (stereo partly drawn) [(3S)-3-(1,3-benzodioxol-5-yl)-3-({2-[5,5-dimethyl-2,4-dioxo-3-(phenylmethyl)tetrahydro-1H-imidazol-1-yl]hexanoyl}amino)propanoic acid], the IC50 is 20 µM.

Still in this data set, the particulars now being: Table 4; Ramos cell adhesion to CS1-conjugated ovalbumin, 30 minutes at 37° C.
Take `CCCCC(C(=O)N[C@@H](CC(=O)O)c1ccc(OC)c(C)c1C)n1cccc(Cc2ccccc2)c1=O` (stereo partly drawn) [(3S)-3-{[2-(3-benzyl-2-oxopyridin-1(2H)-yl)hexanoyl]amino}-3-(4-methoxy-2,3-dimethylphenyl)propanoic acid]: the concentration for half-maximal inhibition (IC50) was 0.3 µM. On the same count and under the same terms, the same measure for `CCCCC(C(=O)N[C@@H](CC(=O)O)c1cc(C)ccc1C)n1cc(C)cc(Cc2ccccc2)c1=O` (stereo partly drawn) [(3S)-3-{[2-(3-benzyl-5-methyl-2-oxopyridin-1(2H)-yl)hexanoyl]amino}-3-(2,5-dimethylphenyl)propanoic acid]: 0.3 µM; for `CCCCC(C(=O)N[C@@H](CC(=O)O)c1ccc(C)c(C)c1)n1cc(C)cc(Cc2ccccc2)c1=O` (stereo partly drawn) [(3S)-3-{[2-(3-benzyl-5-methyl-2-oxopyridin-1(2H)-yl)hexanoyl]amino}-3-(3,4-dimethylphenyl)propanoic acid]: 0.13 µM. On the same count and under the same terms, under `CCCCC(C(=O)N[C@@H](CC(=O)O)c1cc(F)cc(F)c1)n1cc(C)cc(Cc2ccccc2)c1=O` (stereo partly drawn) [(3S)-3-{[2-(3-benzyl-5-methyl-2-oxopyridin-1(2H)-yl)hexanoyl]amino}-3-(3,5-difluorophenyl)propanoic acid] stands 0.025 µM; under `CCCCC(C(=O)N[C@@H](CC(=O)O)c1cc(C)cc(C)c1)n1cc(C)cc(Cc2ccccc2)c1=O` (stereo partly drawn) [(3S)-3-{[2-(3-benzyl-5-methyl-2-oxopyridin-1(2H)-yl)hexanoyl]amino}-3-(3,5-dimethylphenyl)propanoic acid], 0.052 µM. In the case of `CCCCOc1cccc([C@H](CC(=O)O)NC(=O)C(CCCC)n2cc(C)cc(Cc3ccccc3)c2=O)c1` (stereo partly drawn) [(3S)-3-{[2-(3-benzyl-5-methyl-2-oxopyridin-1(2H)-yl)hexanoyl]amino}-3-(3-butoxyphenyl)propanoic acid], the IC50 is 0.045 µM. On the same count and under the same terms, under `CCCCC(C(=O)N[C@@H](CC(=O)O)c1ccc(OC)c(OCC)c1)n1cc(C)cc(Cc2ccccc2)c1=O` (stereo partly drawn) [(3S)-3-{[2-(3-benzyl-5-methyl-2-oxopyridin-1(2H)-yl)hexanoyl]amino}-3-(3-ethoxy-4-methoxyphenyl)propanoic acid] stands 0.004 µM; under `CCCCC(C(=O)N[C@@H](CC(=O)O)c1cccc(OCC)c1)n1cc(C)cc(Cc2ccccc2)c1=O` (stereo partly drawn) [(3S)-3-{[2-(3-benzyl-5-methyl-2-oxopyridin-1(2H)-yl)hexanoyl]amino}-3-(3-ethoxyphenyl)propanoic acid], 0.035 µM; under `CCCCC(C(=O)N[C@@H](CC(=O)O)c1cccc(OC(C)C)c1)n1cc(C)cc(Cc2ccccc2)c1=O` (stereo partly drawn) [(3S)-3-{[2-(3-benzyl-5-methyl-2-oxopyridin-1(2H)-yl)hexanoyl]amino}-3-(3-isopropoxyphenyl)propanoic acid], 0.004 µM. Still for that read-out and setting: the same measure for `CCCCC(C(=O)N[C@@H](CC(=O)O)c1cccc(OCCC)c1)n1cc(C)cc(Cc2ccccc2)c1=O` (stereo partly drawn) [(3S)-3-{[2-(3-benzyl-5-methyl-2-oxopyridin-1(2H)-yl)hexanoyl]amino}-3-(3-propoxyphenyl)propanoic acid]: 0.01 µM; for `CCCCC(C(=O)N[C@@H](CC(=O)O)c1ccc(Cl)c(OC(C)C)c1)n1cc(C)cc(Cc2ccccc2)c1=O` (stereo partly drawn) [(3S)-3-{[2-(3-benzyl-5-methyl-2-oxopyridin-1(2H)-yl)hexanoyl]amino}-3-(4-chloro-3-isopropoxyphenyl)propanoic acid]: 0.025 µM; for `CCCCC(C(=O)N[C@@H](CC(=O)O)c1cc(C)c(OC)cc1C)n1cc(C)cc(Cc2ccccc2)c1=O` (stereo partly drawn) [(3S)-3-{[2-(3-benzyl-5-methyl-2-oxopyridin-1(2H)-yl)hexanoyl]amino}-3-(4-methoxy-2,5-dimethylphenyl)propanoic acid]: 0.283 µM. Same read-out and setting: under `CCCCC(C(=O)N[C@@H](CC(=O)O)c1cc(C)c(OC)c(C)c1)n1cc(C)cc(Cc2ccccc2)c1=O` (stereo partly drawn) [(3S)-3-{[2-(3-benzyl-5-methyl-2-oxopyridin-1(2H)-yl)hexanoyl]amino}-3-(4-methoxy-3,5-dimethylphenyl)propanoic acid] stands 0.14 µM. As to `CCCCC(C(=O)N[C@@H](CC(=O)O)c1ccc(OC)c(C)c1)n1cc(C)cc(Cc2ccccc2)c1=O` (stereo partly drawn) [(3S)-3-{[2-(3-benzyl-5-methyl-2-oxopyridin-1(2H)-yl)hexanoyl]amino}-3-(4-methoxy-3-methylphenyl)propanoic acid], the IC50 was 0.009 µM. On the same count and under the same terms, the same measure for `CCCCC(C(=O)N[C@@H](CC(=O)O)c1ccc(-c2ccc(OC)cc2)cc1)n1cc(C)cc(Cc2ccccc2)c1=O` (stereo partly drawn) [(3S)-3-{[2-(3-benzyl-5-methyl-2-oxopyridin-1(2H)-yl)hexanoyl]amino}-3-(4′-methoxy-1,1′-biphenyl-4-yl)propanoic acid]: 0.3 µM; for `CCCCC(C(=O)N[C@@H](CC(=O)O)c1ccc(-c2ccc(C)cc2)cc1)n1cc(C)cc(Cc2ccccc2)c1=O` (stereo partly drawn) [(3S)-3-{[2-(3-benzyl-5-methyl-2-oxopyridin-1(2H)-yl)hexanoyl]amino}-3-(4′-methyl-1,1′-biphenyl-4-yl)propanoic acid]: 0.25 µM. Still for that read-out and setting: under `CCCCC(C(=O)N[C@@H](CC(=O)O)c1ccc2cc(OC)ccc2c1)n1cc(C)cc(Cc2ccccc2)c1=O` (stereo partly drawn) [(3S)-3-{[2-(3-benzyl-5-methyl-2-oxopyridin-1(2H)-yl)hexanoyl]amino}-3-(6-methoxy-2-naphthyl)propanoic acid] stands 0.04 µM. As for `CCCCC(C(=O)N[C@@H](CC(=O)O)c1cccc(OC(F)(F)F)c1)n1cc(C)cc(Cc2ccccc2)c1=O` (stereo partly drawn) [(3S)-3-{[2-(3-benzyl-5-methyl-2-oxopyridin-1(2H)-yl)hexanoyl]amino}-3-[3-(trifluoromethoxy)phenyl]propanoic acid], the IC50 is 0.04 µM. Turning to `CCCCC(C(=O)N[C@@H](CC(=O)O)c1cccc(C(F)(F)F)c1)n1cc(C)cc(Cc2ccccc2)c1=O` (stereo partly drawn) [(3S)-3-{[2-(3-benzyl-5-methyl-2-oxopyridin-1(2H)-yl)hexanoyl]amino}-3-[3-(trifluoromethyl)phenyl]propanoic acid], the IC50 was 0.25 µM. The same measure, in the same setting: the same measure for `CCCCC(C(=O)N[C@@H](CC(=O)O)c1ccc(OC(F)(F)F)cc1)n1cc(C)cc(Cc2ccccc2)c1=O` (stereo partly drawn) [(3S)-3-{[2-(3-benzyl-5-methyl-2-oxopyridin-1(2H)-yl)hexanoyl]amino}-3-[4-(trifluoromethoxy)phenyl]propanoic acid]: 0.027 µM; for `CCCCC(C(=O)N[C@@H](CC(=O)O)c1ccccc1)n1cc(C)cc(Cc2ccccc2)c1=O` (stereo partly drawn) [(3S)-3-{[2-(3-benzyl-5-methyl-2-oxopyridin-1(2H)-yl)hexanoyl]amino}-3-phenylpropanoic acid]: 0.01 µM. As for `CCCC[C@@H](C(=O)N[C@@H](CC(=O)O)c1ccc(-c2c(OC)cccc2OC)cc1)n1cc(C)cc(Cc2ccccc2)c1=O` [(3S)-3-{[(2S)-2-(3-benzyl-5-methyl-2-oxopyridin-1(2H)-yl)hexanoyl]amino}-3-(2′,6′-dimethoxy-1,1′-biphenyl-4-yl)propanoic acid], the IC50 was 0.2 µM. Still for that read-out and setting: the same measure for `CCCC[C@@H](C(=O)N[C@@H](CC(=O)O)c1cc(OC)cc(OC)c1)n1cc(C)cc(Cc2ccccc2)c1=O` [(3S)-3-{[(2S)-2-(3-benzyl-5-methyl-2-oxopyridin-1(2H)-yl)hexanoyl]amino}-3-(3,5-dimethoxyphenyl)propanoic acid]: 0.01 µM; for `CCCC[C@@H](C(=O)N[C@@H](CC(=O)O)c1ccc(OC)c(F)c1)n1cc(C)cc(Cc2ccccc2)c1=O` [(3S)-3-{[(2S)-2-(3-benzyl-5-methyl-2-oxopyridin-1(2H)-yl)hexanoyl]amino}-3-(3-fluoro-4-methoxyphenyl)propanoic acid]: 0.017 µM; for `CCCCC(C(=O)N[C@@H](CC(=O)O)c1cc(OC)c(OC)c(OC)c1)n1cc(C)cc(Cc2ccccc2)c1=O` (stereo partly drawn) [(3S)-3-{]2-(3-benzyl-5-methyl-2-oxopyridin-1(2H)-yl)hexanoyl]amino}-3-(3,4,5-trimethoxyphenyl)propanoic acid]: 0.033 µM.

Test system in the next data set: not given
Experiment: not given
Conditions: not given
With `CCCCC(C(=O)N[C@@H](CC(=O)O)c1ccc2c(c1)OCO2)N1C(=O)N(Cc2ccccc2)C(=O)C1(C)C` (stereo partly drawn) [(3S)-3-(1,3-benzodioxol-5-yl)-3-({2-[5,5-dimethyl-2,4-dioxo-3-(phenylmethyl)tetrahydro-1H-imidazol-1-yl]hexanoyl}amino)propanoic acid], the melting point was in the range of 53 to 55 °C.

A word on the IC50: it is the concentration at which inhibition is half-maximal. What is called melting point is the temperature of the solid-liquid transition.
